Entries after “also recorded” stand apart in the source; their conditions may differ.
What was measured:
Type in all cases: cell-based, human
[1] = test system: IMR32 (reduced PSMD5) and Kelly neuroblastoma cells; assay: Viability of IMR32 versus Kelly neuroblastoma cells (CellTiter-Glo); settings: for sensitivity of IMR32 cells relative to Kelly cells (fold viability): 72 hours after addition, CellTiter-Glo
Protocol: To determine whether these compounds also differentially affect cells with reduced expression of PSDMS, IMR32 and Kelly cells were each cultured in the presence of ABT-263, disulfiram, or elesclomol across a range of concentrations. Cell viability was measured by CellTiter-Glo® Luminescent Cell Viability Assay 72 hours after addition of the compound to cells. The fold viability relative to culture in the absence of the compound was determined for each cell line. […] In the experiment shown in FIG. 24, the lowest lower concentration of ABT-263 and disulfiram tested was 1 uM.
ABT-263 targets several members of the BCL2 family, including BCL2 and BCL-XL.

T47D cells = assay: The glucose/galactose drug screen; settings: for relative viability change of cells grown in glucose versus galactose: 10 mM Glucose or Galactose, Selleck anti cancer and natural product libraries
[2] = test system: T47D cells with doxycycline inducible PSMD2 KD (Lo19S) versus control cells; assay: Lo19S T47D drug screen (PSMD2 KD versus control cells, CellTiter-Glo); settings: T47D, Lo19S state by dox-inducible PSMD2 shRNA; compound library screen; 72 h; CellTiter-Glo

Row | Structure (SMILES) | sensitivity of IMR32 cells relative to Kelly cells (fold viability) [1] | relative viability change of cells grown in glucose versus galactose (T47D cells) | viability of PSMD2 KD versus control cells (log2 (shPSMD2/Control)) [2] | number of concentrations at which respiring cells were preferentially targeted (T47D cells; galactose versus glucose) | preferential sensitivity of IMR32 versus Kelly cells, compared among BCL2 family inhibitors ([1]; ABT-263 versus more specific BCL2, BCL-XL and MCL-1 inhibitors) | effect of reintroduction (forced expression) of the PSMD5 subunit in IMR32 cells on sensitivity ([1]; IMR32 cells, PSMD5 epigenetically suppressed)
1 | CC(C)C[C@H](NC(=O)[C@H](Cc1ccccc1)NC(=O)c1cnccn1)B(O)O [bortezomib] | increased resistance | strongest hits in this screen | selectively reduce viability of control cells versus PSMD2 KD cells |  |  | 
2 | CN(NC(=O)CC(=O)NN(C)C(=S)c1ccccc1)C(=S)c1ccccc1 [elesclomol] | dramatically more sensitive | cells that respire are predominantly sensitive; also recorded: preferentially targeted respiring cells; also recorded: more potent in cells in the Hi-OXPHOS state | selectively reduce the viability of PSMD2 KD cells versus control cells; also recorded: selectively sensitized cells; also recorded: highly effective in slowing the growth of cells in the Lo19S state | 5 concentrations |  | 
3 | CC1(C)CCC(c2ccc(Cl)cc2)=C(CN2CCN(c3ccc(C(=O)NS(=O)(=O)c4ccc(N[C@H](CCN5CCOCC5)CSc5ccccc5)c(S(=O)(=O)C(F)(F)F)c4)cc3)CC2)C1 [ABT-263, navitoclax] | dramatically more sensitive; also recorded: significantly more sensitive |  | selectively reduce the viability of PSMD2 KD cells versus control cells; also recorded: selectively sensitized cells |  | much greater for ABT-263 | did not significantly alter

Source: patent publication US20180353445A1, “METHODS AND COMPOSITIONS RELATING TO PROTEASOME INHIBITOR RESISTANCE” (Whitehead Institute for Biomedical Research, priority 2017, published 2018)
